Literature values in patent US20210123869A1, “METHOD FOR MEASURING PH OF TEST WATER” (MIURA CO., LTD., priority 2018, published 2021).

Details: value at 25° C.; two values for reagents acid-dissociated in two stages

Compound	acid dissociation constant (pKa)
Cc1c(C2(c3cc(Br)c(O)c(Br)c3C)OS(=O)(=O)c3ccccc32)cc(Br)c(O)c1Br [bromocresol green]	4.7
alizarin yellow	11.06
Cc1cc(C2(c3cc(C)c(O)c(Br)c3)OS(=O)(=O)c3ccccc32)cc(Br)c1O [bromocresol purple]	6.3
